Data set [1] in a line: H+/Na+ transport assay of bead-derived peptides (one-point).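 Further: relative to parent gramicidin A activity set to 1.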 It counts as biochemical. Set-up: key: relative activity; mean of two control wells = 1.00. As to conditions: bead-derived peptide solution, EYPC/EYPG LUVs. The method, boiled down: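 Values are normalized fluorescence, with Triton X-100 defining 100% and untreated LUVs 0%, and the two control wells averaging 1.00. Vesicles carried 1.0 mM pyranine and included egg yolk phosphatidylglycerol. Peptides were incubated with them 30 min at room temperature.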

Data set [2] concerns P388 mouse leukemia cells. The conditions noted are these: 92 h. The method, boiled down:
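Peptide stocks diluted 250× in growth medium; P388 cells 1 × 10^4 cells/mL final; 37 °C, 5% CO2, 92 h. WST-1 + 1-methoxy PMS, 4 h, A415. Output: % viability.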

Data set [3] relates to Streptococcus pyogenes SSI-9. The data set can be described thus: Antibacterial activity assay of bead-derived peptides (three concentrations). It counts as cell-based. Details: key: +++: inhibition by the 640-fold diluted peptide solution; ++: inhibition by the 160-fold diluted solution; +: inhibition by the 40-fold diluted solution; -: no inhibition. The conditions noted are these: S. pyogenes, bead-derived peptide solution, three concentrations. The method, boiled down:
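First, each peptide stock was diluted 4- and 16-fold in DMSO; next, the three solutions were mixed with S. pyogenes SSI-9 suspension (2 × 10^5 CFU) in cation-adjusted Mueller Hinton Broth plus 5% laked horse blood; finally, plates stood 18 h at 37 °C before checking for grown-cell precipitation.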

Where a SMILES comes first, the peptide text is derived from it. [ ]: non-standard residue; d: D form. The star is where a group is joined. NHCH2CH2OH = OCCN*; For = O=C*

Turning to `CC(C)C[C@@H](NC(=O)[C@H](Cc1c[nH]c2ccccc12)NC(=O)[C@H](NC(=O)[C@H](Cc1c[nH]c2ccccc12)NC(=O)[C@@H](CC(C)C)NC(=O)[C@H](Cc1c[nH]c2ccccc12)NC(=O)[C@H](NC(=O)[C@@H](NC(=O)[C@H](NC(=O)[C@H](C)NC(=O)[C@H](NC(=O)[C@H](C)NC(=O)CNC(=O)[C@@H](NC=O)C(C)C)[C@H](C)O)C(C)C)C(C)C)C(C)C)C(C)C)C(=O)N[C@@H](Cc1c[nH]c2ccccc12)C(=O)NCCO` [compound 3548] (For-VGA[dT]A[dV]V[dV]W[dL]W[dV]W[dL]W-NHCH2CH2OH), the “H+/Na+ transport activity normalized against the value of 1 (1.00)” value (from here on “H+/Na+ transport activity normalized”) in data set [1] is recorded as 1.16. This molecule yielded a cell viability/% in data set [2] of 100.0%. Also, the antibacterial activity result in data set [3] is “-”.
Consider `CNC(=O)C[C@@H](NC(=O)[C@@H](NC(=O)[C@H](NC(=O)[C@H](C)NC(=O)[C@@H](CC(C)C)NC(=O)[C@H](C)NC(=O)CNC(=O)[C@@H](NC=O)C(C)C)C(C)C)C(C)C)C(=O)N[C@@H](Cc1c[nH]c2ccccc12)C(=O)N[C@@H](C(=O)N[C@@H](Cc1c[nH]c2ccccc12)C(=O)N[C@H](CC(C)C)C(=O)N[C@@H](Cc1c[nH]c2ccccc12)C(=O)N[C@H](CC(C)C)C(=O)N[C@@H](Cc1c[nH]c2ccccc12)C(=O)NCCO)C(C)C` [compound 3584] (For-VGA[dL]A[dV]V[dD](NHMe)W[dV]W[dL]W[dL]W-NHCH2CH2OH), for which the “H+/Na+ transport activity normalized” value in data set [1] was 1.22. Further, the cell viability/% in data set [2] is on record as 100.0%. Also, in data set [3], the antibacterial activity result is “-”.
Consider `CC(C)C[C@@H](NC(=O)[C@@H](NC(=O)[C@H](NC(=O)[C@H](C)NC(=O)[C@H](NC(=O)[C@H](C)NC(=O)CNC(=O)[C@@H](NC=O)C(C)C)[C@H](C)O)C(C)C)C(C)C)C(=O)N[C@@H](Cc1c[nH]c2ccccc12)C(=O)N[C@@H](C(=O)N[C@@H](Cc1c[nH]c2ccccc12)C(=O)N[C@@H](C(=O)N[C@@H](Cc1c[nH]c2ccccc12)C(=O)N[C@@H](C(=O)N[C@@H](Cc1c[nH]c2ccccc12)C(=O)NCCO)C(C)C)C(C)C)C(C)C` [compound 3631] (For-VGA[dT]A[dV]V[dL]W[dV]W[dV]W[dV]W-NHCH2CH2OH), for which, in data set [1], the “H+/Na+ transport activity normalized” value is reported as 1.02. The cell viability/% in data set [2] turned out to be 100.0%. Further, the antibacterial activity entry in data set [3] is “-”.
For `CC(C)C[C@@H](NC(=O)[C@H](C)NC(=O)CNC(=O)[C@@H](NC=O)C(C)C)C(=O)N[C@@H](C)C(=O)N[C@@H](C(=O)N[C@H](C(=O)N[C@H](CC(C)C)C(=O)N[C@@H](Cc1c[nH]c2ccccc12)C(=O)N[C@@H](C(=O)N[C@@H](Cc1c[nH]c2ccccc12)C(=O)N[C@H](CC(C)C)C(=O)N[C@@H](Cc1c[nH]c2ccccc12)C(=O)N[C@@H](C(=O)N[C@@H](Cc1c[nH]c2ccccc12)C(=O)NCCO)C(C)C)C(C)C)C(C)C)C(C)C` [compound 3633] (For-VGA[dL]A[dV]V[dL]W[dV]W[dL]W[dV]W-NHCH2CH2OH), in that order: 1.04, 1.7% and “-”.
Turning to `CC(C)C[C@@H](NC(=O)[C@H](C)NC(=O)CNC(=O)[C@@H](NC=O)C(C)C)C(=O)N[C@@H](C)C(=O)N[C@H](CC(C)C)C(=O)N[C@H](C(=O)N[C@@H](C(=O)N[C@@H](Cc1c[nH]c2ccccc12)C(=O)N[C@H](CC(C)C)C(=O)N[C@@H](Cc1c[nH]c2ccccc12)C(=O)N[C@@H](C(=O)N[C@@H](Cc1c[nH]c2ccccc12)C(=O)N[C@H](CC(C)C)C(=O)N[C@@H](Cc1c[nH]c2ccccc12)C(=O)NCCO)[C@H](C)O)[C@H](C)O)C(C)C` [compound 3780] (For-VGA[dL]A[dL]V[dT]W[dL]W[dT]W[dL]W-NHCH2CH2OH), in data set [1], the “H+/Na+ transport activity normalized” value is listed as 1.16. Moreover, in data set [2], the cell viability/% worked out at 100.0%. The antibacterial activity entry in data set [3] was “-”.
Take `CNC(=O)C[C@@H](NC(=O)[C@@H](NC(=O)[C@@H](CC(C)C)NC(=O)[C@H](C)NC(=O)[C@H](NC(=O)[C@H](C)NC(=O)CNC(=O)[C@@H](NC=O)C(C)C)C(C)C)C(C)C)C(=O)N[C@@H](Cc1c[nH]c2ccccc12)C(=O)N[C@H](CC(C)C)C(=O)N[C@@H](Cc1c[nH]c2ccccc12)C(=O)N[C@H](CC(C)C)C(=O)N[C@@H](Cc1c[nH]c2ccccc12)C(=O)N[C@@H](C(=O)N[C@@H](Cc1c[nH]c2ccccc12)C(=O)NCCO)C(C)C` [compound 3800] (For-VGA[dV]A[dL]V[dD](NHMe)W[dL]W[dL]W[dV]W-NHCH2CH2OH): the “H+/Na+ transport activity normalized” value in data set [1] was determined as 1.23. This molecule returned a cell viability/% in data set [2] of 100.0%. For the same molecule, the antibacterial activity result in data set [3] is “-”.
With `CC(C)C[C@@H](NC(=O)[C@H](C)NC(=O)CNC(=O)[C@@H](NC=O)C(C)C)C(=O)N[C@@H](C)C(=O)N[C@@H](C(=O)N[C@H](C(=O)N[C@H](CC(C)C)C(=O)N[C@@H](Cc1c[nH]c2ccccc12)C(=O)N[C@H](CC(C)C)C(=O)N[C@@H](Cc1c[nH]c2ccccc12)C(=O)N[C@@H](C(=O)N[C@@H](Cc1c[nH]c2ccccc12)C(=O)N[C@H](CC(C)C)C(=O)N[C@@H](Cc1c[nH]c2ccccc12)C(=O)NCCO)C(C)C)C(C)C)C(C)C` [compound 3847] (For-VGA[dL]A[dV]V[dL]W[dL]W[dV]W[dL]W-NHCH2CH2OH), in data set [1], the “H+/Na+ transport activity normalized” value turned out to be 1.22. This molecule also gave a cell viability/% in data set [2] of 0.0%. Further, in data set [3], the antibacterial activity result is “+”.
On to `CNC(=O)C[C@@H](NC(=O)[C@H](Cc1c[nH]c2ccccc12)NC(=O)[C@H](NC(=O)[C@H](Cc1c[nH]c2ccccc12)NC(=O)[C@@H](CC(C)C)NC(=O)[C@H](Cc1c[nH]c2ccccc12)NC(=O)[C@@H](CC(C)C)NC(=O)[C@@H](NC(=O)[C@@H](CC(C)C)NC(=O)[C@H](C)NC(=O)[C@@H](CC(C)C)NC(=O)[C@H](C)NC(=O)CNC(=O)[C@@H](NC=O)C(C)C)C(C)C)C(C)C)C(=O)N[C@@H](Cc1c[nH]c2ccccc12)C(=O)NCCO` [compound 3911] (For-VGA[dL]A[dL]V[dL]W[dL]W[dV]W[dD](NHMe)W-NHCH2CH2OH), for which the “H+/Na+ transport activity normalized” value in data set [1] was 1.00. In data set [2], this molecule had a cell viability/% of 100.0%. For the same molecule, the antibacterial activity entry in data set [3] is listed as “-”.
As to `CNC(=O)C[C@@H](NC(=O)[C@@H](NC(=O)[C@@H](CC(C)C)NC(=O)[C@H](C)NC(=O)[C@@H](CC(C)C)NC(=O)[C@H](C)NC(=O)CNC(=O)[C@@H](NC=O)C(C)C)C(C)C)C(=O)N[C@@H](Cc1c[nH]c2ccccc12)C(=O)N[C@H](CC(C)C)C(=O)N[C@@H](Cc1c[nH]c2ccccc12)C(=O)N[C@H](CC(C)C)C(=O)N[C@@H](Cc1c[nH]c2ccccc12)C(=O)N[C@@H](C(=O)N[C@@H](Cc1c[nH]c2ccccc12)C(=O)NCCO)[C@H](C)O` [compound 3929] (For-VGA[dL]A[dL]V[dD](NHMe)W[dL]W[dL]W[dT]W-NHCH2CH2OH), the “H+/Na+ transport activity normalized” value in data set [1] stood at 1.14. In addition, the cell viability/% in data set [2] amounted to 100.0%. Besides, the antibacterial activity entry in data set [3] was “-”.
Turning to `CC(C)C[C@@H](NC(=O)[C@H](C)NC(=O)CNC(=O)[C@@H](NC=O)C(C)C)C(=O)N[C@@H](C)C(=O)N[C@H](CC(C)C)C(=O)N[C@H](C(=O)N[C@@H](C(=O)N[C@@H](Cc1c[nH]c2ccccc12)C(=O)N[C@@H](C(=O)N[C@@H](Cc1c[nH]c2ccccc12)C(=O)N[C@@H](C(=O)N[C@@H](Cc1c[nH]c2ccccc12)C(=O)N[C@H](CC(C)C)C(=O)N[C@@H](Cc1c[nH]c2ccccc12)C(=O)NCCO)C(C)C)[C@H](C)O)C(C)C)C(C)C` [compound 4031] (For-VGA[dL]A[dL]V[dV]W[dT]W[dV]W[dL]W-NHCH2CH2OH), the “H+/Na+ transport activity normalized” value in data set [1] is given as 1.05. In data set [2], the cell viability/% came to 92.4%. Also, in data set [3], the antibacterial activity entry is “-”.
As to `CNC(=O)C[C@@H](NC(=O)[C@@H](NC(=O)[C@H](NC(=O)[C@H](C)NC(=O)[C@H](NC(=O)[C@H](C)NC(=O)CNC(=O)[C@@H](NC=O)C(C)C)C(C)C)C(C)C)C(C)C)C(=O)N[C@@H](Cc1c[nH]c2ccccc12)C(=O)N[C@@H](C(=O)N[C@@H](Cc1c[nH]c2ccccc12)C(=O)N[C@H](CC(C)C)C(=O)N[C@@H](Cc1c[nH]c2ccccc12)C(=O)N[C@H](CC(C)C)C(=O)N[C@@H](Cc1c[nH]c2ccccc12)C(=O)NCCO)C(C)C` [compound 4049] (For-VGA[dV]A[dV]V[dD](NHMe)W[dV]W[dL]W[dL]W-NHCH2CH2OH), the “H+/Na+ transport activity normalized” value in data set [1] was found to be 1.15. The same molecule returned a cell viability/% in data set [2] of 100.0%. Also, the antibacterial activity result in data set [3] was “-”.
On the same counts, the results for `CC(C)C[C@@H](NC(=O)[C@H](C)NC(=O)[C@H](NC(=O)[C@H](C)NC(=O)CNC(=O)[C@@H](NC=O)C(C)C)C(C)C)C(=O)N[C@H](C(=O)N[C@@H](C(=O)N[C@@H](Cc1c[nH]c2ccccc12)C(=O)N[C@H](CC(C)C)C(=O)N[C@@H](Cc1c[nH]c2ccccc12)C(=O)N[C@@H](C(=O)N[C@@H](Cc1c[nH]c2ccccc12)C(=O)N[C@@H](C(=O)N[C@@H](Cc1c[nH]c2ccccc12)C(=O)NCCO)C(C)C)C(C)C)[C@H](C)O)C(C)C` [compound 4126] (For-VGA[dV]A[dL]V[dT]W[dL]W[dV]W[dV]W-NHCH2CH2OH) are 1.06, 100.0% and “-”.

These data come from article PMC7531004, “Discovery of gramicidin A analogues with altered activities by multidimensional screening of a one-bead-one-compound library” (Nature Communications, 2020).
